ChEMBL document CHEMBL1221213, “Biomimetic synthesis of the IDO inhibitors exiguamine A and B” (Nat Chem Biol, 2008)
pKi: −log10 of the molar value.

Molecular target: Indoleamine 2,3-dioxygenase 1 (Homo sapiens, UniProt P14902)
Test: Inhibition of human recombinant indoleamine-2,3-dioxygenase

Indoleamine 2,3-dioxygenase 1, sequence (P14902 whole entry): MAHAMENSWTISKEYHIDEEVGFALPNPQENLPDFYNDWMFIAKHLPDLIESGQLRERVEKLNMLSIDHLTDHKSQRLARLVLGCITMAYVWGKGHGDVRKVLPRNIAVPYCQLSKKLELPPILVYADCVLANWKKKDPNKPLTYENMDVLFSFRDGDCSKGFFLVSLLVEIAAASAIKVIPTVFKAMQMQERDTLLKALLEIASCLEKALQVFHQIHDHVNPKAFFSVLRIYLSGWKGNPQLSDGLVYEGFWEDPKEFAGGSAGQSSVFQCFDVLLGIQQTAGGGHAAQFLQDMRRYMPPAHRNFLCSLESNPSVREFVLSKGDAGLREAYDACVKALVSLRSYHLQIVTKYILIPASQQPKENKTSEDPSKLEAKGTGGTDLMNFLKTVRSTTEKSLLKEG

Row | pKi | Compound
1 | 7.10 | CN(C)CCc1ccc(O)c(O)c1C1=C(C2C(=O)N(C)C(=O)N2C)C(=O)c2c(CCN)c[nH]c2C1=O (configuration not stated)
2 | 7.10 | CN1C(=O)N(C)[C@]2(Oc3c(O)cc4c(c3C3=C2C(=O)c2c(CCN)c[nH]c2C3=O)[C@H](O)C[N+]4(C)C)C1=O [EXIGUAMINE B]
